Assay results reported in ChEMBL document CHEMBL5113463, “Discovery and preclinical evaluations of JBD0131, a novel nitrodihydro-imidazooxazole anti-tuberculosis agent” (Bioorg Med Chem Lett, 2022).
Values after ≈ are worked out from the molar mass of the structure shown.

Legend:
[1] = Half life in CD-1 mouse at 0.6 mg/kg, iv; format: ADME, organism-based; conditions: in vivo
[2] = Cmax in Beagle dog at 2 mg/kg, po; format: ADME, organism-based, Canis lupus familiaris; design: dose 2 mg/kg, route po; conditions: in vivo
[3] = Plasma protein binding in human assessed as bound fraction; format: ADME, cell-free; conditions: read-out: PPB (converted)
[4] = Drug distribution in Sprague-Dawley rat kidney at 10 mg/kg, po administered as C14-lableled compound and assessed as radioactivity; format: ADME, organism-based; conditions: in vivo
[5] = Metabolic stability in rat liver microsomes assessed as half life; format: ADME, Microsome
[6] = Volume of distribution in CD-1 mouse at 0.6 mg/kg, iv; format: ADME, organism-based; conditions: in vivo
[7] = test system: Mycobacterium tuberculosis; experiment: Antimycobacterial activity against clinical isolate drug susceptible Mycobacterium tuberculosis H37Rv assessed as bacterial growth inhibition; format: functional
[8] = target: T1, A-type voltage-gated potassium channel KCND3 (Homo sapiens, UniProt Q9UK17); experiment: Inhibition of Kv4.3 (unknown origin)
T1 sequence (Q9UK17 whole entry): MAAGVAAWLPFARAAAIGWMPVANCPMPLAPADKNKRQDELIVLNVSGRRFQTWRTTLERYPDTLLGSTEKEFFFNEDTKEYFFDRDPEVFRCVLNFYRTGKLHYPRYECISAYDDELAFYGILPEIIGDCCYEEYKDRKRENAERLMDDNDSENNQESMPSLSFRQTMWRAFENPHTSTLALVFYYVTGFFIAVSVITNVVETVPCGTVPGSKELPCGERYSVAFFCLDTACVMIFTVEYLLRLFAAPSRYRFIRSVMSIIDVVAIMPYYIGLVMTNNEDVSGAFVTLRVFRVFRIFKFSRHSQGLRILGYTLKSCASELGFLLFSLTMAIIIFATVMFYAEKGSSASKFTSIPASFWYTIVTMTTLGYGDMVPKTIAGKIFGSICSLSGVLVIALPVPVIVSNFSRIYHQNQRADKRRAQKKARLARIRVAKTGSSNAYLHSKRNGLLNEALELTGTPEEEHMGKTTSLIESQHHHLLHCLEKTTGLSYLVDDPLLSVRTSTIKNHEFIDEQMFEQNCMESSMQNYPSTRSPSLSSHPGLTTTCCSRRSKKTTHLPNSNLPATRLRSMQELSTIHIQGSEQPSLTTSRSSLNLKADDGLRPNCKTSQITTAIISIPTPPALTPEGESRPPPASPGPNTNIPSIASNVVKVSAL

[9] = Plasma protein binding in dog assessed as bound fraction; format: ADME, cell-free, Canis lupus familiaris; conditions: read-out: PPB (converted)
[10] = Apparent permeability across basolateral to apical side in dog MDCK cells; format: ADME, cell-based, Canis lupus familiaris
[11] = Oral bioavailability in CD-1 mouse at 5 mg/kg; format: ADME, organism-based; conditions: mouse, in vivo, po, 5 mg/kg
[12] = Volume of distribution in Beagle dog at 0.5 mg/kg, iv; format: ADME, organism-based, Canis lupus familiaris; conditions: in vivo
[13] = Oral bioavailability in Sprague-Dawley rat at 4 mg/kg; format: ADME, organism-based; conditions: in vivo
[14] = Efflux ratio of apparent permeability across basolateral to apical over apical to basolateral membrane in dog MDCK cells; format: ADME, cell-based, Canis lupus familiaris
[15] = Aqueous solubility of compound at pH 2.0; format: physicochemical; conditions: buffer
[16] = Drug distribution in Sprague-Dawley rat lung at 10 mg/kg, po administered as C14-lableled compound and assessed as radioactivity; format: ADME, organism-based; conditions: in vivo
[17] = test system: Mycobacterium tuberculosis; experiment: Antimycobacterial activity against Mycobacterium tuberculosis Erdman assessed as bacterial growth inhibition; format: functional
[18] = Half life in Beagle dog at 0.5 mg/kg, iv; format: ADME, organism-based, Canis lupus familiaris; conditions: in vivo
[19] = test system: Mycobacterium tuberculosis; experiment: In vivo antimycobacterial activity against Mycobacterium tuberculosis Erdman infected mouse acute tuberculosis infection model assessed as reduction in log10 CFU at 10 mg/kg for 3 weeks at 5 days/week relative to control; format: functional
[20] = test system: Mycobacterium tuberculosis; experiment: In vivo antimycobacterial activity against Mycobacterium tuberculosis Erdman infected mouse chronic tuberculosis infection model assessed as reduction log10 CFU at 10 to 100 mg/kg for 4 weeks at 5 days/week administered after 31 days post infection relative to control; format: functional; conditions: dose 10-100 mg/kg
Cytochrome P450 2B6 = target: T2, Cytochrome P450 2B6 (Homo sapiens, UniProt P20813); experiment: Inhibition of CYP2B6 (unknown origin); format: ADME
T2 sequence (P20813 whole entry): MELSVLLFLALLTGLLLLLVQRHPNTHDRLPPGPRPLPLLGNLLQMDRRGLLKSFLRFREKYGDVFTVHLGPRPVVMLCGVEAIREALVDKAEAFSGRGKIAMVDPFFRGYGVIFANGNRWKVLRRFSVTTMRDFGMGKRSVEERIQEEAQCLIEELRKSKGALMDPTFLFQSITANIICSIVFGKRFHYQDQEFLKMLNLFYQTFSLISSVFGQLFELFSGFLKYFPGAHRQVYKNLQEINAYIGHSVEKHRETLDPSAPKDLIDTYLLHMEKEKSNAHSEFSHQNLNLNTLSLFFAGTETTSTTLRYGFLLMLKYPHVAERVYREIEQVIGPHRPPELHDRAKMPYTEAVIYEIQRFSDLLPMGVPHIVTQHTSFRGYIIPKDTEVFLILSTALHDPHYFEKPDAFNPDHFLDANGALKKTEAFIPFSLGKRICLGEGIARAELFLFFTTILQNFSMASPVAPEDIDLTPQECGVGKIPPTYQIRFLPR

[21] = test system: Mycobacterium tuberculosis; experiment: In vivo antimycobacterial activity against Mycobacterium tuberculosis Erdman infected mouse acute tuberculosis infection model assessed as reduction lung bacterial loads by measuring CFU at 10 to 100 mg/kg for 3 weeks at 5 days/week; format: functional, organism-based; conditions: dose 10-100 mg/kg, DDE = dose-dependent effect
[22] = Cmax in CD-1 mouse at 5 mg/kg, po; format: ADME, organism-based; design: dose 5 mg/kg, route po; conditions: in vivo
[23] = Drug distribution in Sprague-Dawley rat liver at 10 mg/kg, po administered as C14-lableled compound and assessed as radioactivity; format: ADME, organism-based; conditions: in vivo
[24] = Plasma protein binding in rat assessed as bound fraction; format: ADME, cell-free; conditions: read-out: PPB (converted)
[25] = target: Voltage-dependent L-type calcium channel subunit alpha-1C (Homo sapiens, UniProt Q13936); experiment: Inhibition of human Cav1.2
Voltage-dependent L-type calcium channel subunit alpha-1C, sequence (Q13936 whole entry): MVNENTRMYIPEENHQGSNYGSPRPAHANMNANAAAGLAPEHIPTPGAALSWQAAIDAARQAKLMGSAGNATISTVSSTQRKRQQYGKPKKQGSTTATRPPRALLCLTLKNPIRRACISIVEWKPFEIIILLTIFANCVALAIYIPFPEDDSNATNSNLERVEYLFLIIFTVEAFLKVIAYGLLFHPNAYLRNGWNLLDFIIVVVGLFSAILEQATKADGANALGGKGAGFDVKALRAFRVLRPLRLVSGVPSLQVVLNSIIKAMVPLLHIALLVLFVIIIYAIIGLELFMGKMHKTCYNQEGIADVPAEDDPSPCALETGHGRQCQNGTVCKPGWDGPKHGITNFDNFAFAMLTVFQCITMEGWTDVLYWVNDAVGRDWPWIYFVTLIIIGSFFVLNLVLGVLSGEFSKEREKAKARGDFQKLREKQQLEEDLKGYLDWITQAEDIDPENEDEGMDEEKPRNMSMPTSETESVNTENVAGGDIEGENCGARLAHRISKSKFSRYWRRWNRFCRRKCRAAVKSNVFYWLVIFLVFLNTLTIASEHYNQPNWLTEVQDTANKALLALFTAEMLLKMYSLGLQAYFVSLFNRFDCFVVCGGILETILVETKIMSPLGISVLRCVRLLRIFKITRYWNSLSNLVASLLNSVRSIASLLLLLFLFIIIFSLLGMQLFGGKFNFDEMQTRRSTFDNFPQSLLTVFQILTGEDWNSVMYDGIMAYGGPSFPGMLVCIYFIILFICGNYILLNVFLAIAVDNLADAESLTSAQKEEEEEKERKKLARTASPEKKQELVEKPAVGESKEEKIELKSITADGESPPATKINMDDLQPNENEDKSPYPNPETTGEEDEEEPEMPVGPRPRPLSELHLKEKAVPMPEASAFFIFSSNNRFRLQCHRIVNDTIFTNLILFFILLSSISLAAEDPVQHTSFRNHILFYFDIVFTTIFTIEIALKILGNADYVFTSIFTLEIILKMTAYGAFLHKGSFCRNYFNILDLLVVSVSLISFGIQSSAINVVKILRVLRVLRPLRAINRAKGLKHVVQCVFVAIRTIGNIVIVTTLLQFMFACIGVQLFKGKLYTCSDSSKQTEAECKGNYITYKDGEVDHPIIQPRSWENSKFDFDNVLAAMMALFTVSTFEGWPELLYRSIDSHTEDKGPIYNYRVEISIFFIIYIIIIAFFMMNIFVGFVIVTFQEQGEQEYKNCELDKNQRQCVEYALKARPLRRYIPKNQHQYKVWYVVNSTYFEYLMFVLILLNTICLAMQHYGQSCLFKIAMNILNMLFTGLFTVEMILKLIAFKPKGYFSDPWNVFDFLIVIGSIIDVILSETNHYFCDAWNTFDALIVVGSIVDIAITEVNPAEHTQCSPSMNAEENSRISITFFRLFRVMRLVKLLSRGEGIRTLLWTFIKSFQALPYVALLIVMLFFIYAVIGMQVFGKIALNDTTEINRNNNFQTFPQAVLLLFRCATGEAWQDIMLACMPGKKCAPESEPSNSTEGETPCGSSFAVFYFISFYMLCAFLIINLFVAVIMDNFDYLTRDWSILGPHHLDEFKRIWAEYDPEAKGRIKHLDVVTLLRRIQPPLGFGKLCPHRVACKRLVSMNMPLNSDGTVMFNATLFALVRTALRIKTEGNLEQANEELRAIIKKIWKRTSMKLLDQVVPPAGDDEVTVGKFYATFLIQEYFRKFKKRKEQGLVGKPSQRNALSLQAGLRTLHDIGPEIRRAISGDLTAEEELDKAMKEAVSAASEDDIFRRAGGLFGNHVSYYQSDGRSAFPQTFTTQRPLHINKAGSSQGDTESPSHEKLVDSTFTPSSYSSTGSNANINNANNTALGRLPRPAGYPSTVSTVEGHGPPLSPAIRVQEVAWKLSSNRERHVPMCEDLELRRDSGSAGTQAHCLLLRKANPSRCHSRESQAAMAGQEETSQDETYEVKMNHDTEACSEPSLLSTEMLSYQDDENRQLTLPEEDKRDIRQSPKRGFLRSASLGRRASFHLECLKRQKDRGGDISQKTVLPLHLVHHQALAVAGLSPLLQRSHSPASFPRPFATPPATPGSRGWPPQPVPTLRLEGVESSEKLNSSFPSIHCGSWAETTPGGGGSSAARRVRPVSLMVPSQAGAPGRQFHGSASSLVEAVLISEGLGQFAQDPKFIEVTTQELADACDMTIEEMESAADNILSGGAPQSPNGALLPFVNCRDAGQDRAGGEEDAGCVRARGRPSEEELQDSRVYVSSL

[26] = Metabolic stability in cynomolgus monkey liver microsomes assessed as half life; format: ADME, Macaca fascicularis, Microsome
Cytochrome P450 1A2 = target: T3, Cytochrome P450 1A2 (Homo sapiens, UniProt P05177); experiment: Inhibition of CYP1A2 (unknown origin); format: ADME
T3 sequence (P05177 whole entry): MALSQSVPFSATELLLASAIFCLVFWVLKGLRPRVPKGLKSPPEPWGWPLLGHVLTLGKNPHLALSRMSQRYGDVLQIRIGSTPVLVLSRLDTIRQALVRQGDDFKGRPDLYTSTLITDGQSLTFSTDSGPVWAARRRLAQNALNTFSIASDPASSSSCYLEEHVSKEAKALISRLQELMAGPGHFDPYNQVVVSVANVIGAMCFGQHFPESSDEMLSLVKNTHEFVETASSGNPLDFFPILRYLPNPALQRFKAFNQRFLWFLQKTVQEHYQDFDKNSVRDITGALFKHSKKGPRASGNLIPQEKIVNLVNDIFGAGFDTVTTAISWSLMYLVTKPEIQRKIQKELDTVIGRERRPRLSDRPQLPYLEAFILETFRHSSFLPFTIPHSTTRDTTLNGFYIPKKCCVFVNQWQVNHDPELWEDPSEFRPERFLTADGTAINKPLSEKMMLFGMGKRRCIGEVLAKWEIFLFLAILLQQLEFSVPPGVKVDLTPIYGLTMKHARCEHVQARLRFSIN

Compound `C[C@]1(CN2Cc3nc(-c4ccc(F)cc4)sc3C2)CN=C(N)O1` has a half-life [1] of 195 min, a Cmax [2] of 141 nM and a fraction unbound [3] of 0.018. The Drug uptake [4] was “Active”, the half-life [5] was 68 min and the Vd [6] was 2.69 L/kg. For the same compound, the MIC50 [7] was 0.012 µg/mL (≈ 0.0361 µM), the MIC90 [7] was 0.03 µg/mL (≈ 0.0903 µM) and the IC50 [8] was > 13.3 µM. The fraction unbound [9] was 0.036, the Papp B→A [10] was 15.8 ×10⁻⁶ cm/s and the F [11] was 31.2%. It also gave a Vd [12] of 4.52 L/kg, a bioavailability [13] of 66.9% and an efflux ratio [14] of 0.76. For the same compound, the solubility [15] was 32.2 µM (≈ 10.7 µg/mL), the Drug uptake [16] was “Active” and the MIC [17] was 0.109 µg/mL (≈ 0.328 µM). For the same compound, the half-life [18] was 362 min, the Activity [19] was 4 log10CFU and the Activity [20] was 1 log10CFU. For the same compound, the IC50 (Cytochrome P450 2B6) was > 100 µM, the Activity [21] was “Dde” and the Cmax [22] was 753 ng/mL. For the same compound, the Drug uptake [23] was “Active”, the fraction unbound [24] was 0.055 and the IC50 [25] was > 13.3 µM. The half-life [26] was 75 min and the IC50 (Cytochrome P450 1A2) was > 100 µM.
